Data taken from patent publication US12215090B2, “Agents and methods for treating dysproliferative diseases” (Memorial Sloan-kettering Cancer Center, priority 2018, dated 2025).
Where two headings read alike, the source gives them in different places.

How the values were obtained:
Type in all cases: cell-based
[1] = tested on: LY8 cells; experiment: cell viability assay, LY8 cells
Text: (§1) FIGS. 1A, 1B, 1C, and 1D show the activity of compounds of the invention, compared to (−)-CR31B and (+)-CR31B in cell viability assays using (A) DHL6 cells, (B) Jurkat cells, (C) DoHH2 cells, and (D) LY8 cells. […] The following table reports the IC50s (in nM) for each lymphoma and leukemia cell type.

[2] = tested on: Jurkat cells; experiment: cell viability assay, Jurkat cells
Text: as §1

[3] = tested on: DoHH2 cells; experiment: cell viability assay, DoHH2 cells
Text: as §1

[4] = tested on: KOPTK1 cells, a murine T-cell ALL cell line; experiment: cell viability assay, KOPTK1 cells; conditions: Mus musculus
[5] = tested on: DHL8 cells; experiment: cell viability assay, DHL8 cells
Text: as §1

[6] = tested on: DHL6 cells; experiment: cell viability assay, DHL6 cells
Text: as §1

[7] = tested on: MOLT-4 (human acute lymphoblastic leukemia [ALL]); experiment: cell viability assay, MOLT-4 cancer cells; conditions: MOLT-4 T-ALL cells, 72 hours of exposure, cell titer glow reagent
Procedure: (§2) The biological activity of compounds of the invention was evaluated in several assays. In a cell viability assay using cancer and normal cells lines MOLT-4 (human acute lymphoblastic leukemia [ALL]) and MRC-5 (human lung fibroblast), respectively, cell viability was assessed after 72 hours of exposure to a range of concentrations, using cell titer glow reagent from Promega to assess viability.

[8] = tested on: MRC-5 (human lung fibroblast); experiment: cell viability assay, MRC-5 normal cells; conditions: MRC5, MRC-5 non-cancer cells, 72 hours of exposure, cell titer glow reagent
Procedure: as §2

Molecule	IC50 [1] [nM]	IC50 ([2]; Homo sapiens) [nM]	IC50 ([3]; Homo sapiens, DOHH-2) [nM]	IC50 [4] [nM]	IC50 [5] [nM]	IC50 [6] [nM]	IC50 [7] [nM]	IC50 [8] [nM]	IC50 [2] [nM]	IC50 [3] [nM]
COc1cc(OC)c2c(c1)OC1(c3ccc(O)cc3)C(c3ccccc3)C(C(N)=O)C(O)C21O (racemic) [Racemic mixture of Compounds 8 and 9, 1,8b-dihydroxy-3a-(4-hydroxyphenyl)-6,8-dimethoxy-3-phenyl-2,3-dihydro-1H-cyclopenta[b]benzofuran-2-carboxamide]	2910	1730	987	10	1040	947				
CONC(=O)[C@H]1[C@@H](O)[C@@]2(O)c3c(OC)cc(OC)cc3O[C@@]2(c2ccc(O)cc2)[C@@H]1c1ccccc1 [Compound 1, (1R,2R,3S,3aR,8bS)-1,8b-dihydroxy-3a-(4-hydroxyphenyl)-N,6,8-trimethoxy-3-phenyl-2,3-dihydro-1Hcyclopenta[b]benzofuran-2-carboxamide]	38.9	63	36.7	50	74.9	51.5	5.3	> 1000		
(+)-CR31B [reference compound]	16500				7480	~4300			~3110	2530
(−)-CR31B [reference compound]	5.93				7.21	7.62			6.42	7.3
